Data published in patent US7318924B2, “Antibodies against cancer” (The Austin Research Institute, priority 2001, dated 2008).
Converted amounts (≈) assume the structure as drawn.

Assays:
[1] = system: JNK/SAPK; test: JNK activation in LS174T cells; format: cell-based, human; details: 3 hours; C3 5, 10 μg/ml; Cisplatin 25, 50 μg/ml
Method: (§1) P38 was not affected by C3 but was activated by Cisplatin.
The role of JNK and p38 activation in anti-Cripto-1 mediated apoptosis was investigated in colon cancer LS17T cell line using different concentration of Mabs and various times of incubation. In particular, JNK/SPAK was activated in LS174T cells following 3 hours incubation with anti-Cripto-1 Mab in a dose dependent manner (FIG. 8A). JNK activation was at the highest level after 24 hours of exposure (FIGS. 8B and 8D), and declined within 48 h, returning to basal level at 72 hours of incubation (FIG. 8D) indicating JNK activation by anti-Cripto1 antibodies is time dependent

[2] = system: p38; test: p38 activation in LS174T cells; format: cell-based, human; details: 3 hours; C3 5, 10 μg/ml; Cisplatin 25, 50 μg/ml
Method: as §1
The stress related p38 pathway was also investigated in LS174T cells following anti-Cripto-1 Mab treatment. p38 activation occurred following 48 hours of Mab exposure, when the level of activated JNK declined. p38 was further activated at 72 hours when elevated JNK returned to basal level (FIG. 8D). […] The potentiation of Cisplatin cytotoxicity by anti-Cripto-1 Mabs (FIG. 1) is accompanied by an increase in JNK phosphorylation (FIG. 8A) and p38 MAPK (FIG. 8B).

[3] = system: CEM/A7; test: Growth of leukaemia cell line CEM/A7; format: cell-based, human
Text: (§2) Therefore, C4 can overcome drug resistance which is a common problem in acute leukemia.

[4] = system: CEM/A7R; test: Growth of drug resistant leukaemia cell line CEM/A7R; format: cell-based, human
Text: Thus, this cell line is normally resistant to a variety of naturally derived chemotherapeutic agents.
as §2

[5] = system: mouse thyoma E3 cells; test: Growth of mouse thymoma E3 cells; format: cell-based; details: read-out: Ic50 concentration
Text: as §2

SMILES | JNK activation [1] | p38 activation [2] | resistance to Epirubicin compared to E3 [3] | resistance to Epirubicin compared to E3 [4] [fold] | IC50 [5] [µg/mL]
N.N.[Cl][Pt][Cl] [Cisplatin] | induced | activated |  |  | 
COc1cccc2c1C(=O)c1c(O)c3c(c(O)c1C2=O)C[C@@](O)(C(=O)CO)C[C@@H]3O[C@H]1C[C@H](N)[C@@H](O)[C@H](C)O1 [Epirubicin] |  |  | around 80 fold | ~40 | 0.02 (≈ 0.0368 µM)
